From ChEMBL document CHEMBL3045978, “Sensitivity of Botrytis cinerea to chitosan and acibenzolar-S-methyl” (Pest Manag Sci, 2010) come the findings set out here.

The test system of assay [1] is Botrytis cinerea. As to the kind of experiment: Antifungal activity against Botryotinia fuckeliana infected grape assessed as decrease in lesion diameter at 3 mg/ml applied by dipping 24 hr prior to infection measured after 4 days at 4 degC relative to untreated-control. The assay is classed as functional, organism-based.
In assay [2] the test system is Botrytis cinerea. As to the kind of experiment: Growth inhibition of Botryotinia fuckeliana at 0.5 mg/ml after 4 days relative to control. The format is functional. Conditions: 96 h, read-out: GI.
For assay [3], the system named is Botrytis cinerea. As to the kind of experiment: Antifungal activity against Botryotinia fuckeliana infected grape assessed as lesion diameter at 3 mg/ml applied by dipping 24 hr prior to infection measured after 4 days at 24 degC (reference value: 30.56 mm). The assay is classed as functional.
The test system of assay [4] is Botrytis cinerea. As to the kind of experiment: Antifungal activity against Botryotinia fuckeliana infected grape assessed as decrease in lesion diameter at 3 mg/ml applied by dipping 24 hr prior to infection measured after 3 days at 4 degC relative to untreated-control. The assay is classed as functional, organism-based.
Assay [5] deals with Botrytis cinerea. Kind of assay: Growth inhibition of Botryotinia fuckeliana at 4 mg/ml after 4 days relative to control. The following applies: 96 h, read-out: GI. The format is functional.
Assay [6] concerns Botrytis cinerea. As to the kind of experiment: Antifungal activity against Botryotinia fuckeliana infected grape assessed as decrease in lesion diameter at 1 to 3 mg/ml applied by dipping 24 hr prior to infection measured after 5 to 7 days at 4 degC relative to untreated-control. The assay is classed as functional, organism-based.
Assay [7] deals with Botrytis cinerea. As to the kind of experiment: Antifungal activity against Botryotinia fuckeliana infected in grape assessed as lesion diameter at 1 mg/ml applied by dipping 24 hr prior to infection measured after 4 days at 24 degC (reference value: 30.56 mm). The format is functional.
Assay [8] relates to Botrytis cinerea. Kind of assay: Growth inhibition of Botryotinia fuckeliana at 1 mg/ml after 4 days relative to control. Conditions: 96 h, read-out: GI. The format is functional.
Assay [9] has as its system Botrytis cinerea. Kind of assay: Growth inhibition of Botryotinia fuckeliana at 5 mg/ml after 4 days relative to control. The format is functional. Conditions: 96 h, read-out: GI.
Assay [10] concerns Botrytis cinerea. As to the kind of experiment: Antifungal activity against Botryotinia fuckeliana assessed as mycelial growth at 3 mg/ml after 4 days (reference value: 85 mm). The format is functional.
For assay [11], the system named is Botrytis cinerea. Kind of assay: Antifungal activity against Botryotinia fuckeliana infected grape assessed as decrease in lesion diameter at 1 mg/ml applied by dipping 24 hr prior to infection measured after 4 days at 4 degC relative to untreated-control. The format is functional, organism-based.
In assay [12] the test system is Botrytis cinerea. Kind of assay: Antifungal activity against Botryotinia fuckeliana infected grape assessed as decrease in lesion diameter at 3 mg/ml applied by dipping 24 hr prior to infection measured after 3 days at 24 degC relative to untreated-control. The assay is classed as functional, organism-based.
Assay [13] concerns Botrytis cinerea. Kind of assay: Antifungal activity against Botryotinia fuckeliana assessed as mycelial growth at 2 mg/ml after 4 days (reference value: 85 mm). The format is functional.
Assay [14] deals with Botrytis cinerea. Kind of assay: Antifungal activity against Botryotinia fuckeliana assessed as mycelial growth after 4 days. The assay is classed as functional, organism-based. Conditions: 96 h.

Converted amounts (≈) assume the structure as drawn. The source made the active and inactive calls. No cut-off for these calls is given here.

With `CSC(=O)c1cccc2nnsc12` [ACIBENZOLAR-S-METHYL], the result with Botrytis cinerea [1], with Botrytis cinerea [4], with Botrytis cinerea [6], in the assay with Botrytis cinerea [11] and in the assay with Botrytis cinerea [12] was Active. The inhibition of growth at 500 µg/mL in the assay with Botrytis cinerea [2] stood at 16.3%. For the same molecule, the Activity was found to be 16.99 mm in the assay on Botrytis cinerea [3], 17.94 mm with Botrytis cinerea [7], 44.72 mm with Botrytis cinerea [10] and 54.26 mm in the assay on Botrytis cinerea [13]. Also, in the assay on Botrytis cinerea [5], the inhibition of growth at 4000 µg/mL was determined as 55.6%. Also, the inhibition of growth at 1000 µg/mL in the assay with Botrytis cinerea [8] is 23.1%. In the assay on Botrytis cinerea [9], the inhibition of growth at 5000 µg/mL turned out to be 66.2%. For the same molecule, the EC50 (usually the midpoint of the concentration-response curve) in the assay on Botrytis cinerea [14] was found to be 3440 µg/mL (≈ 16.4 mM).
